One data set has as its system Plasma. Briefly: Plasma protein binding in human by chromatographic method. The data set is classed as ADME, cell-free.
In data set [1] the test system is Plasmodium falciparum. Nature of the data set: Antimalarial activity against Plasmodium falciparum 3D7 by [3H]hypoxanthine incorporation assay in presence of human serum. The class given is functional, organism-based.
A further data set relates to Liver microsomes. Nature of the data set: Intrinsic clearance in human liver microsomes. The data set is classed as ADME, Microsome.
Data set [2] can be described thus: Cmax in Swiss outbred mouse at 20 mg/kg, po. The data set is classed as ADME, organism-based. Set-up: dose 20 mg/kg, route oral. The conditions noted are these: in vivo.
The next data set concerns Liver. Briefly: Intrinsic clearance in mouse liver microsomes. The data set is classed as ADME, Microsome. On the technique in general: Liver microsomes are vesicles of endoplasmic reticulum, rich in cytochrome P450 enzymes.
Data set [3] in a line: Aqueous solubility of the compound at pH 6.5. The class given is physicochemical.
Data set [4] can be described thus: AUC (0 to infinity) in Swiss outbred mouse plasma at 20 mg/kg, po. The data set is classed as ADME, organism-based. Set-up: time infinity, dose 20 mg/kg, route oral.
Data set [5] can be described thus: Lipophilicity, log D of the compound at pH 7.4. The data set is classed as physicochemical. The conditions noted are these: buffer.
The nature of data set [6]: in vivo. The conditions noted are these: Swiss outbred, mouse, po, 20 mg/kg.
For data set [7], the target named is T1, Dihydroorotate dehydrogenase (Plasmodium falciparum, UniProt Q54A96).
T1 sequence (Q54A96 whole entry): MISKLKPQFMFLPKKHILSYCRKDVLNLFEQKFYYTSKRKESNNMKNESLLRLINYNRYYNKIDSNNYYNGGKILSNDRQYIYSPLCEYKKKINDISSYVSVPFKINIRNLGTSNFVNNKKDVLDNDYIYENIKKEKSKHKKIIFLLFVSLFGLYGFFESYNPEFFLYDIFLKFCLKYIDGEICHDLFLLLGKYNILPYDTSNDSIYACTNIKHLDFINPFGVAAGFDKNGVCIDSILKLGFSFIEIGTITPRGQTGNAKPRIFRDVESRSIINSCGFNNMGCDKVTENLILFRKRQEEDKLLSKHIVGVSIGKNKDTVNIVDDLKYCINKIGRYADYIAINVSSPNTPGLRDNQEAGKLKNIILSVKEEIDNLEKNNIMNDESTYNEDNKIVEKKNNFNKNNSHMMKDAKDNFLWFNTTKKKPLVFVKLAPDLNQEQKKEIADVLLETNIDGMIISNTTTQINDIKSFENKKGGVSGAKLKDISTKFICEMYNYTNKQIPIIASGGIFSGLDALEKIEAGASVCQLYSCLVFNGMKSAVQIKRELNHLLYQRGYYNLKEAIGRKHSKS
Description: Inhibition of Plasmodium falciparum C-terminal hexa-His tagged DHODH expressed in Escherichia coli by DCIP reduction assay

In data set [8] the test system is Mus musculus. Briefly: Time plasma concentration remained above 1 uM in Swiss outbred mouse plasma at 20 mg/kg, po. The data set is classed as ADME, organism-based. Set-up: dose 20 mg/kg, route oral. To be noted: in vivo.
Data set [9] concerns the target Dihydroorotate dehydrogenase (quinone), mitochondrial (Homo sapiens, UniProt Q02127).
Description: Inhibition of human C-terminal hexa-His tagged DHODH expressed in Escherichia coli by DCIP reduction assay
Data set [10] can be described thus: Inhibition of Plasmodium berghei C-terminal hexa-His tagged DHODH expressed in Escherichia coli by DCIP reduction assay.
The nature of data set [11]: Terminal elimination half life in Swiss outbred mouse at 20 mg/kg, po. The data set is classed as ADME, organism-based. Set-up: dose 20 mg/kg, route oral. The conditions noted are these: in vivo, read-out: beta t1/2 (converted).
The nature of data set [12]: in vivo. The conditions noted are these: NOD-SCID IL-2Rgamma-null, mouse, po, 10 mg/kg.
Data set [13] concerns Mus musculus. Nature of the data set: AUC (0 to 10 hrs) in human RBC engrafted NOD-SCID IL-2Rgamma-null mouse at 10 mg/kg, po. The data set is classed as ADME, organism-based, Plasma. Set-up: time < 10 hr, dose 10 mg/kg, route oral. The conditions noted are these: in vivo.
A short description of data set [14]: in vivo. To be noted: NOD-SCID IL-2Rgamma-null, mouse, po, 10 mg/kg. The source holds these as a separate data set.
For data set [15], the system named is Plasmodium falciparum. Nature of the data set: Antimalarial activity against Plasmodium falciparum 3D7 0087/N9 infected in human RBC engrafted NOD-SCID IL-2Rgamma-null mouse assessed as reduction in parasitemia administered orally 3 days post infection qd for 4 days measured 24 hrs after final dose by FACS analysis. The data set is classed as functional. To be noted: 3D7 0087/N9, po.

The nature of data set [16]: Cmax in human RBC engrafted NOD-SCID IL-2Rgamma-null mouse at 10 mg/kg, po. The data set is classed as ADME, organism-based. Also on record: dose 10 mg/kg, route oral. The conditions noted are these: in vivo.
Data set [17] can be described thus: Cmax in human RBC engrafted NOD-SCID IL-2Rgamma-null mouse infected with Plasmodium falciparum 3D7 0087/N9 at 10 mg/kg, po. The data set is classed as ADME, organism-based. Set-up: dose 10 mg/kg, route oral. The conditions noted are these: in vivo.
Data set [18] has as its system Mus musculus. Briefly: AUC (0 to 10 hrs) in human RBC engrafted NOD-SCID IL-2Rgamma-null mouse infected with Plasmodium falciparum 3D7 0087/N9 at 10 mg/kg, po. The data set is classed as ADME, organism-based, Plasma. Set-up: time < 10 hr, dose 10 mg/kg, route oral. The conditions noted are these: in vivo.

Consider 2 molecules from ChEMBL document CHEMBL1955725, “Structure-guided lead optimization of triazolopyrimidine-ring substituents identifies potent Plasmodium falciparum dihydroorotate dehydrogenase inhibitors with clinical candidate potential” (J Med Chem, 2011).

Values after ≈ are worked out from the molar mass of the structure shown. Some results are limits rather than exact numbers.

Sequence of Dihydroorotate dehydrogenase (quinone), mitochondrial (Q02127 whole entry): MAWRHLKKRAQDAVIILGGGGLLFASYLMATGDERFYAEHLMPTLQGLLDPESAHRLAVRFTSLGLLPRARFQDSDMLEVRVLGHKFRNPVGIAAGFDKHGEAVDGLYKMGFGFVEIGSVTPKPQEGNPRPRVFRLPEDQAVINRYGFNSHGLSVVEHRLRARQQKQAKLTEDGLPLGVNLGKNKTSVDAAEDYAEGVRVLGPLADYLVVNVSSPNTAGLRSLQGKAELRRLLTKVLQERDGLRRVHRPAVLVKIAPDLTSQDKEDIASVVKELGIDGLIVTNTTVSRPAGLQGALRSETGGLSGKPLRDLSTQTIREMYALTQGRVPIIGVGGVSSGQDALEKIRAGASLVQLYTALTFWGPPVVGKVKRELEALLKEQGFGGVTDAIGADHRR

With `CCOc1nc2nc(C)cc(Nc3ccc(C(F)(F)F)cc3)n2n1`, the PPB in the data set with Plasma was 92.4%. Also, in the data set on Plasmodium falciparum [1], the concentration giving a half-maximal response (EC50) was 58 nM. Moreover, the Intrinsic clearance amounted to 7 µL/min/mg in the data set with Liver microsomes and 14.4 µL/min/mg in the data set on Liver. The same molecule came in with a peak concentration (Cmax) in [2] of 5.8 µM. This molecule also registered a solubility in data set [3] of 19 µM (≈ 6.41 µg/mL). This molecule showed an AUC(0-inf) in [4] of 20.7 µM·h. This molecule also had a log distribution coefficient (logD) in data set [5] of 3.1. The time to peak (Tmax) in “in vivo [6]” was 1 h. The IC50 in data set [7] is 56 nM; in data set [9] it was greater than 100000 nM; in data set [10], 2700 nM. Also, the Time in the data set on Mus musculus [8] amounted to 6 h. In data set [11], the half-life is 1.4 h.
With `Cc1cc(Nc2cc(F)c(C(F)(F)F)c(F)c2)n2ncnc2n1`, the Tmax in “in vivo [12]” stood at 3.3 h; in the data set “in vivo [14]” it was 2 h. Moreover, the AUC turned out to be 3848 µM·min in the data set on Mus musculus [13] and 3173 µM·min in the data set with Mus musculus [18]. Further, the ED50 with Plasmodium falciparum [15] came to 19 mg/kg. Also, in the data set with Plasmodium falciparum [15], the ED90 was 59 mg/kg. Besides, the Cmax in data set [16] was determined as 8.5 µM; in data set [17], 8.2 µM.

Broadly, the EC50 is the concentration needed to bring the measured effect to its halfway point. A word on the Cmax: it is the maximum level reached in the sampled fluid or tissue. A word on the solubility: it is the concentration that dissolves in the medium under given conditions. A high value points to a readily soluble substance. The term AUC(0-inf) denotes total exposure, with the tail of the curve extrapolated. The term logD denotes lipophilicity at a set pH, counting ionised and neutral species. A higher logD goes with higher lipophilicity. The Tmax is the time at which the peak concentration occurs. Broadly, the IC50 is the point on the concentration scale where inhibition reaches its midpoint. As a reminder, the AUC is the area under the concentration-time curve, a measure of exposure. Usually ED50 stands for the dose that gives a 50% effect, or the effect in half of the subjects.
